Source: patent publication US9023821B2, “Use of MicroRNA for treating diseases associated with a dysfunction of the cilia in multiciliated epithelial cells” (Centre National de la Recherche Scientifique, priority 2009, dated 2015)

Experiments:
[1] = tested on: human airway epithelial cells (HAECs); test: High-throughput sequencing (HTS) of miRNAs at four stages of differentiation of HAECs; conditions: for Modulation (ratio of the level of intensity of expression in log2 in two stages of differentiation) measured by high-throughput sequencing, D7 − D0 / Modulation (ratio of the level of intensity of expression in log2 in two stages of differentiation) measured by high-throughput sequencing, FC − D7 / Modulation (ratio of the level of intensity of expression in log2 in two stages of differentiation) measured by high-throughput sequencing, WD − D0 / Modulation (ratio of the level of intensity of expression in log2 in two stages of differentiation) measured by high-throughput sequencing, WD − FC / Level of intensity of expression in log2 measured by high-throughput sequencing, D0 / Level of intensity of expression in log2 measured by high-throughput sequencing, D7 / Level of intensity of expression in log2 measured by high-throughput sequencing, FC / Level of intensity of expression in log2 measured by high-throughput sequencing, WD: Table VI; for Level of intensity of expression in log2 At the differentiated stage (WD) measured in HTS: healthy human airway epithelial tissue; for Level of intensity of expression in log2 measured by high-throughput sequencing, D0: stage D0; for Level of intensity of expression in log2 measured by high-throughput sequencing, D7: stage D7; for Level of intensity of expression in log2 measured by high-throughput sequencing, FC: stage FC; for Level of intensity of expression in log2 At the differentiated stage (WD) measured in HTS / Level of intensity of expression in log2 measured by high-throughput sequencing, WD: stage WD
Summary of the method: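 Small-RNA libraries from differentiating HAECs (ALI-D0 to ALI-WD) were built by ligation-based SOLiD chemistry, size-selected and sequenced. Strand counts were normalized per million reads, converted to percentage abundance, and filtered on adjusted P-value below 0.05.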

[2] = tested on: human airway epithelial cells (HAECs); test: Agilent miRNA chips, miRNA expression at four stages of differentiation of HAECs; conditions: for Modulation (ratio of the level of intensity of expression in log2 in two stages of differentiation) measured with the Agilent chips, D7 − D0 / Modulation (ratio of the level of intensity of expression in log2 in two stages of differentiation) measured with the Agilent chips, FC − D7 / Modulation (ratio of the level of intensity of expression in log2 in two stages of differentiation) measured with the Agilent chips, WD − D0 / Modulation (ratio of the level of intensity of expression in log2 in two stages of differentiation) measured with the Agilent chips, WD − FC / Level of intensity of expression in log2 measured with the Agilent chips, D0 / Level of intensity of expression in log2 measured with the Agilent chips, D7 / Level of intensity of expression in log2 measured with the Agilent chips, FC / Level of intensity of expression in log2 measured with the Agilent chips, WD: Table VI; for Modulation (ratio of the level of intensity of expression in log2 at two stages of differentiation), FC − D7 / Modulation (ratio of the level of intensity of expression in log2 at two stages of differentiation), WD − FC: Agilent miRNA chips, Table V; for Level of intensity of expression in log2 measured with the Agilent chips, D0: stage D0; for Level of intensity of expression in log2 measured with the Agilent chips, D7: stage D7; for Level of intensity of expression in log2 measured with the Agilent chips, FC: stage FC; for Level of intensity of expression in log2 measured with the Agilent chips, WD: stage WD
Summary of the method: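 RNA from the same patients' HAECs at four differentiation stages was labelled and hybridized with the Agilent miRNA labeling and hybridization kit. Chips were Human miRNA Microarray v2, with 866 human and 89 viral miRNAs (miRBase v12.0). Profiles were compared with high-throughput sequencing data.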

[3] = tested on: basal cells and pyramidal cells of the airway epithelium; test: miRNA expression in sorted basal cells versus pyramidal cells (ciliated + secretory), HTS and Agilent chips; parameters: species or system human; conditions: for Modulation of expression of the miRNAs in pyramidal cells (323(−)) relative to basal cells 323(+): HTS and Agilent chips; for Intensity of the level of expression in log2 in pyramidal cells (323(−)): pyramidal cells (ciliated + secretory)
Summary of the method: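 Epithelium dissociated from nasal polyps is held 30 min in PBS-BSA-EDTA, then labelled 20 min at 4° C for CD151 and tissue factor. After DAPI staining, live single cells are sorted into marker-double-positive and double-negative fractions, and sort purity and identity are verified. Total RNA then undergoes miRNA profiling on arrays or by sequencing.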

hsa-miR-148a: human miRNA, SEQ ID No. 7 (UCAGUGCACUACAGAACUUUGU; expressed or natural sequence; listed as Homo sapiens)
Modulation (ratio of the level of intensity of expression in log2 in two stages of differentiation) measured by high-throughput sequencing, D7 − D0 [1]: 1.31 log2 | Modulation (ratio of the level of intensity of expression in log2 in two stages of differentiation) measured by high-throughput sequencing, FC − D7 [1]: −0.28 log2 | Modulation (ratio of the level of intensity of expression in log2 in two stages of differentiation) measured by high-throughput sequencing, WD − D0 [1]: 1.93 log2 | Modulation (ratio of the level of intensity of expression in log2 in two stages of differentiation) measured by high-throughput sequencing, WD − FC [1]: 0.91 log2 | Level of intensity of expression in log2 At the differentiated stage (WD) measured in HTS [1]: 8.97 log2 | Level of intensity of expression in log2 measured by high-throughput sequencing, D0 [1]: 7.04 log2 | Level of intensity of expression in log2 measured by high-throughput sequencing, D7 [1]: 8.34 log2 | Level of intensity of expression in log2 measured by high-throughput sequencing, FC [1]: 8.06 log2 | Level of intensity of expression in log2 measured by high-throughput sequencing, WD [1]: 8.97 log2 | Modulation (ratio of the level of intensity of expression in log2 in two stages of differentiation) measured with the Agilent chips, D7 − D0 [2]: 2.06 log2 | Modulation (ratio of the level of intensity of expression in log2 at two stages of differentiation), FC − D7 [2]: −0.50 log2 | Modulation (ratio of the level of intensity of expression in log2 in two stages of differentiation) measured with the Agilent chips, FC − D7 [2]: −0.50 log2 | Modulation (ratio of the level of intensity of expression in log2 in two stages of differentiation) measured with the Agilent chips, WD − D0 [2]: 1.60 log2 | Modulation (ratio of the level of intensity of expression in log2 at two stages of differentiation), WD − FC [2]: 0.04 log2 | Modulation (ratio of the level of intensity of expression in log2 in two stages of differentiation) measured with the Agilent chips, WD − FC [2]: 0.04 log2 | Level of intensity of expression in log2 measured with the Agilent chips, D0 [2]: 7.35 log2 | Level of intensity of expression in log2 measured with the Agilent chips, D7 [2]: 9.41 log2 | Level of intensity of expression in log2 measured with the Agilent chips, FC [2]: 8.91 log2 | Level of intensity of expression in log2 measured with the Agilent chips, WD [2]: 8.95 log2 | Modulation of expression of the miRNAs in pyramidal cells (323(−)) relative to basal cells 323(+) [3]: −1.76 | Intensity of the level of expression in log2 in basal cells (323(+)) [3]: 7.14 log2 | Intensity of the level of expression in log2 in pyramidal cells (323(−)) [3]: 5.39 log2

hsa-miR-151-5p: human miRNA, SEQ ID No. 8 (UCGAGGAGCUCACAGUCUAGU; expressed or natural sequence; listed as Homo sapiens)
Modulation (ratio of the level of intensity of expression in log2 in two stages of differentiation) measured by high-throughput sequencing, D7 − D0 [1]: 1.13 log2 | Modulation (ratio of the level of intensity of expression in log2 in two stages of differentiation) measured by high-throughput sequencing, FC − D7 [1]: −0.02 log2 | Modulation (ratio of the level of intensity of expression in log2 in two stages of differentiation) measured by high-throughput sequencing, WD − D0 [1]: 1.02 log2 | Modulation (ratio of the level of intensity of expression in log2 in two stages of differentiation) measured by high-throughput sequencing, WD − FC [1]: −0.09 log2 | Level of intensity of expression in log2 At the differentiated stage (WD) measured in HTS [1]: 10.22 log2 | Level of intensity of expression in log2 measured by high-throughput sequencing, D0 [1]: 9.20 log2 | Level of intensity of expression in log2 measured by high-throughput sequencing, D7 [1]: 10.33 log2 | Level of intensity of expression in log2 measured by high-throughput sequencing, FC [1]: 10.31 log2 | Level of intensity of expression in log2 measured by high-throughput sequencing, WD [1]: 10.22 log2 | Modulation (ratio of the level of intensity of expression in log2 in two stages of differentiation) measured with the Agilent chips, D7 − D0 [2]: 1.83 log2 | Modulation (ratio of the level of intensity of expression in log2 at two stages of differentiation), FC − D7 [2]: −0.37 log2 | Modulation (ratio of the level of intensity of expression in log2 in two stages of differentiation) measured with the Agilent chips, FC − D7 [2]: −0.37 log2 | Modulation (ratio of the level of intensity of expression in log2 in two stages of differentiation) measured with the Agilent chips, WD − D0 [2]: 1.46 log2 | Modulation (ratio of the level of intensity of expression in log2 at two stages of differentiation), WD − FC [2]: 0.00 log2 | Modulation (ratio of the level of intensity of expression in log2 in two stages of differentiation) measured with the Agilent chips, WD − FC [2]: 0.00 log2 | Level of intensity of expression in log2 measured with the Agilent chips, D0 [2]: 6.71 log2 | Level of intensity of expression in log2 measured with the Agilent chips, D7 [2]: 8.54 log2 | Level of intensity of expression in log2 measured with the Agilent chips, FC [2]: 8.17 log2 | Level of intensity of expression in log2 measured with the Agilent chips, WD [2]: 8.17 log2 | Modulation of expression of the miRNAs in pyramidal cells (323(−)) relative to basal cells 323(+) [3]: −0.73 | Intensity of the level of expression in log2 in basal cells (323(+)) [3]: 7.24 log2 | Intensity of the level of expression in log2 in pyramidal cells (323(−)) [3]: 6.51 log2
